Laboratory results taken from US12628822B2, “Plant pathogen defence elicitors” (UNIVERSITÉ LIBRE DE BRUXELLES, priority 2020, dated 2026).

Tested on: Arabidopsis transcriptome
Test: cDNA microarray analysis of early transcriptomic changes in Arabidopsis seedlings
Format: in vivo, Arabidopsis thaliana
Method: Arabidopsis thaliana Columbia (Col-0) was the accession used for all the experiments. Seeds were surface sterilised by subsequent treatment with 50% v/v Et-OH and 3% bleach solution in agitation for 5 and 10 min, respectively. Seeds were then washed three times with distilled water and stratified for 3 days at 4° C. in the dark. For qPCR analysis and microarray experiments, seeds were sown on square petri dishes ([…]) containing half strength Murashige and Skoog (MS) salt, 2.5 mM MES, 1% w/v sucrose and 0.8% w/v plant agar. The experiments were performed using 14-day old seedlings grown vertically in a controlled growth cabinet with short day conditions ( 8/16 h light/dark; 100 μmol photons m^−2 s^−1) at 22±0.5° C. Treatments were performed by applying 40-50 μl of fresh-prepared and filtered solution per seedling.
For RNA extraction, 14-day old leaves from ten independent plants were collected at the indicated time point after treatments, pooled and frozen in liquid nitrogen. Total RNA was extracted from 100 mg of ground-frozen samples using the Maxwell® LEV Plant RNA Kit (Promega, Madison, WI, USA) and the RNA integrity was determined through NanoDrop 2000 UV-Vis Spectrophotometer (Thermo Scientific, Loughborough, UK). First-strand cDNA was synthesized by using SOLIScript® RT cDNA synthesis MIX (Solis Biodyne, Tartu, Estonia) and qPCRs were performed using SYBR® Selected MasterMix 2× (Applied Biosystems, Thermo Fisher Scientific, Waltham, USA), following the manufacturers' protocols. The cycling conditions consisted of an initial 7 min at 95° C., followed by 40 two-step cycles at 95° C. for 5 s and at 60° C. for 30 s. Melting curve analysis was performed after cycle completion to validate amplicon identity. Relative expression levels were calculated following the standard curve-based method (Larionov et al. A standard curve based method for relative real time PCR data processing, BMC Bioinformatics. 2005, vol. 6, 1) by using ACTIN as reference. Gene-specific primers used in this work are indicated below.
RNA sample preparation for microarray hybridization was carried out as described in the Applied Biosystems™ GeneChip™ Whole Transcript (WT) PLUS Reagent Kit User Guide (Thermo Fisher Scientific, Waltham, MA, USA). Briefly, 200 ng of total RNA was used to generate double-stranded cDNA. Twelve μg of subsequently synthesized cRNA were purified and reverse transcribed into single-stranded (ss)cDNA, where unnatural dUTP residues were incorporated. Purified and labelled sscDNAs were hybridised to Arabidopsis Gene 1.0 ST arrays (Affymetrix, Santa Clara, CA, USA) and the fluorescent signals were measured with an Applied Biosystems™ GeneChip Scanner 3000 7 G System. Sample processing was performed at a Genomics Core Facility, “KFB—Center of Excellence for Fluorescent Bioanalytics” (Regensburg, Germany).
Normalised probe set signals in log2 scale were calculated by using the RMA algorithm. Average linkage hierarchical clusters of differentially expressed genes were generated by using Cluster 3.0 and visualized by java TreeView.
In Arabidopsis, the DAMPs-dependent elicitation of PTI is known to be accompanied by a deep immune gene transcriptional reprogramming. […] The transcriptomic analysis was carried out by using Arabidopsis 1.0 ST microarray chip (Affymetrix, Santa Clara, CA, USA) and Differentially Expressed Genes (DEGs) were selected using two criteria: log2 expression ratios ≥1.5-fold or […] and Student's t-test p-value≤0.05.

[1] = 100 μM, 1 h, Col-0 plants, vs control

In the case of `OC[C@H]1O[C@@H](O[C@H]2[C@H](O)[C@@H](O)[C@H](O)O[C@@H]2CO)[C@H](O)[C@@H](O)[C@@H]1O` [Cellobiose, β-D-glucopyranosyl(1→4)D-glucopyranose], the “AT3G46280 protein kinase-like protein gene expression” value [1] is reported as 4.51 fold change, the “AT3G51910 heat stress transcription factor A-7a gene expression” value [1] is reported as 1.35 fold change and the “AT3G54420 chitinase class IV gene expression” value [1] is reported as 1.74 fold change. For the same compound, the “AT4G01750 rhamnogalacturonan xylosyltransferase 2 gene expression” value [1] was 2.59 fold change, the “AT4G11890 receptor-like cytosolic kinase ARCK1 gene expression” value [1] was 1.75 fold change and the “AT4G12400 carboxylate clamp-tetratricopeptide repeat protein gene expression” value [1] was 3.23 fold change. For the same compound, the “AT4G15233 ABC transporter G family member 42 gene expression” value [1] was 1.66 fold change, the “AT4G21120 amino acid transporter 1 gene expression” value [1] was 1.07 fold change and the “AT4G22470 protease inhibitor/seed storage/lipid transfer protein (LTP) family protein gene expression” value [1] was 1.77 fold change. The “AT4G22710 cytochrome P450, family 706, subfamily A, polypeptide 2 gene expression” value [1] was 1.15 fold change, the “AT4G23220 cysteine-rich receptor-like protein kinase 14 gene expression” value [1] was 1.69 fold change and the “AT4G23280 putative cysteine-rich receptor-like protein kinase 20 gene expression” value [1] was 1.14 fold change. For the same compound, the “AT4G23570 phosphatase SGT1a gene expression” value [1] was 2.22 fold change, the “AT4G25110 metacaspase 2 gene expression” value [1] was 1.74 fold change and the “AT4G26200 1-aminocyclopropane-1-carboxylate synthase 7 gene expression” value [1] was 2.14 fold change. The “AT4G27280 EF-hand, calcium binding motif-containing protein gene expression” value [1] was 1.33 fold change, the “AT4G38550 phospholipase like protein (PEARLI 4) family gene expression” value [1] was 1.60 fold change and the “AT5G05300 hypothetical protein gene expression” value [1] was 1.78 fold change. For the same compound, the “AT5G10695 hypothetical protein gene expression” value [1] was 2.27 fold change, the “AT5G14470 GHMP kinase family protein gene expression” value [1] was 1.21 fold change and the “AT5G15870 glycosyl hydrolase family 81 protein gene expression” value [1] was 1.14 fold change. The “AT5G19230 GPI-anchored glycoprotein membrane precursor gene expression” value [1] was 1.24 fold change, the “AT5G35320 hypothetical protein gene expression” value [1] was 1.02 fold change and the “AT5G37600 glutamine synthetase 1; 1 gene expression” value [1] was 1.56 fold change. The “AT5G37670 heat shock protein 15.7 gene expression” value [1] was 1.04 fold change, the “AT5G39020 putative receptor-like protein kinase gene expression” value [1] was 1.02 fold change and the “AT5G39580 peroxidase 62 gene expression” value [1] was 3.82 fold change. The “AT5G44070 glutathione gamma-glutamylcysteinyltransferase 1 gene expression” value [1] was 1.44 fold change, the “AT5G44585 hypothetical protein gene expression” value [1] was 2.20 fold change and the “AT5G44910 Toll-Interleukin-Resistance domain-containing protein gene expression” value [1] was 1.10 fold change. The “AT5G46050 peptide transporter 3 gene expression” value [1] was 1.74 fold change, the “AT5G48530 hypothetical protein gene expression” value [1] was 2.07 fold change and the “AT5G48540 receptor-like protein kinase-related family protein gene expression” value [1] was 1.85 fold change. The “AT5G48570 peptidyl-prolyl cis-trans isomerase FKBP65 gene expression” value [1] was 3.39 fold change, the “AT5G51440 heat shock protein 23.5 gene expression” value [1] was 1.36 fold change and the “AT5G52640 heat shock protein 90.1 gene expression” value [1] was 3.70 fold change. For the same compound, the “AT5G57220 cytochrome P450, family 81, subfamily F, polypeptide 2 gene expression” value [1] was 1.07 fold change, the “AT5G62020 heat stress transcription factor B-2a gene expression” value [1] was 1.00 fold change and the “AT5G64120 peroxidase 71 gene expression” value [1] was 1.42 fold change. The “AT5G67450 zinc-finger protein 1 gene expression” value [1] was 1.44 fold change, the “MYB51 (AT1G18570) Expression” value (100 μM, 1 h, microarray) was 1.46 Fold change (treatment/CTR) and the “MYB73 (AT4G37260) Expression” value (100 μM, 1 h, microarray) was 1.06 Fold change (treatment/CTR). The “NAC047 (AT3G04070) Expression” value (100 μM, 1 h, microarray) was 1.81 Fold change (treatment/CTR), the “NAC055 (AT3G15500) Expression” value (100 μM, 1 h, microarray) was 1.20 Fold change (treatment/CTR) and the “NAC057 (AT3G17730) Expression” value (100 μM, 1 h, microarray) was 1.40 Fold change (treatment/CTR). The “NAC058 (AT3G18400) Expression” value (100 μM, 1 h, microarray) was 1.41 Fold change (treatment/CTR), the “NAC078 (AT5G04410) Expression” value (100 μM, 1 h, microarray) was 1.31 Fold change (treatment/CTR) and the “Target of MYB protein 1 (AT1G76970) Expression” value (100 μM, 1 h, microarray) was 1.64 Fold change (treatment/CTR). The “WRKY11 (AT4G31550) Expression” value (100 μM, 1 h, microarray) was 1.95 Fold change (treatment/CTR), the “WRKY15 (AT2G23320) Expression” value (100 μM, 1 h, microarray) was −1.06 Fold change (treatment/CTR) and the “WRKY18 (AT4G31800) Expression” value (100 μM, 1 h, microarray) was 4.02 Fold change (treatment/CTR). The “WRKY22 (AT4G01250) Expression” value (100 μM, 1 h, microarray) was 2.34 Fold change (treatment/CTR), the “WRKY30 (AT5G24110) Expression” value (100 μM, 1 h, microarray) was 1.30 Fold change (treatment/CTR) and the “WRKY33 (AT2G38470) Expression” value (100 μM, 1 h, microarray) was 1.33 Fold change (treatment/CTR). For the same compound, the “WRKY40 (AT1G80840) Expression” value (100 μM, 1 h, microarray) was −1.05 Fold change (treatment/CTR), the “WRKY61 (AT1G18860) Expression” value (100 μM, 1 h, microarray) was −1.05 Fold change (treatment/CTR) and the “WRKY72 (AT5G15130) Expression” value (100 μM, 1 h, microarray) was 1.41 Fold change (treatment/CTR). For the same compound, the “LOX4 (AT1G72520) gene expression, Microarray” value (vs CTR) was 1.68 fold change, the “MPK3 (AT3G45640) gene expression, Microarray” value (vs CTR) was 1.22 fold change and the “MPK6 (AT2G43790) gene expression, Microarray” value (vs CTR) was −1.06 fold change. The “PAD3 (AT3G26830) gene expression, Microarray” value (vs CTR) was −1.04 fold change, the “PEN3 (AT1G59870) gene expression, Microarray” value (vs CTR) was 1.55 fold change and the “PR1 (AT2G14610) gene expression, Microarray” value (vs CTR) was 1.91 fold change. The “WRKY18 (AT4G31800) gene expression, Microarray” value (vs CTR) was 4.02 fold change, the “WRKY22 (AT4G01250) gene expression, Microarray” value (vs CTR) was 2.34 fold change and the “WRKY33 (AT2G38470) gene expression, Microarray” value (vs CTR) was 1.33 fold change. The “IGMT2 (At1G21120) gene expression, Microarray” value (vs mock) was −1.14 fold change.
